Assay results as given in patent publication US20220105041A1, “METHOD FOR MANUFACTURING A SOLID ADMINISTRATION FORM AND SOLID ADMINISTRATION” (priority 2019, published 2022).

Assay: Dissolution (release of caffeine) of 3D printed tablets, paddle method, Sotax AT 7smart
Assay type: physicochemical
Details: 900 ml 0.1 n HCl, 37° C., paddle 100 rpm, UV 272 nm
Method: Release of caffeine as active ingredient is determined using the Sotax Freisetzungsapparatur Sotax AT 7smart (Sotax AG, Lörrach, Germany) […]
Each sample is collected in a test tube with the automatic sampler.
Device: Release apparatus: Sotax AT 7smart (Sotax AG, Lörrach, Germany), Photometer Agilent 8453 (Agilent Technologies, Waldbronn, Germany)
Temperature of medium: 37° C.
Cuvette layer thickness: 10 mm
FIG. 31 illustrates results achieved by dissolution measurement of 3D printed caffeine containing tablets in 900 ml of 0.1 n HCl. […] To dissolute and release the full API amount of a filled tablet (100%) needs 360 minutes for entire release of the comprising API, while a 3D printed tablet, 50% filled, already releases 100% of the comprising API amount after app 30 minutes in the dissolution equipment. The time measured is […] dissolving pure crystalline caffeine particles tested in comparison by 100% after app 5 minutes.

## Cn1c(=O)c2c(ncn2C)n(C)c1=O [pure crystalline caffeine, Caffeine]
  time to release 100% (full amount) of API caffeine: ~5 min
